Data set [1] concerns the target T1, Amine oxidase [flavin-containing] B (Homo sapiens, UniProt P27338).
T1 sequence (P27338 whole entry): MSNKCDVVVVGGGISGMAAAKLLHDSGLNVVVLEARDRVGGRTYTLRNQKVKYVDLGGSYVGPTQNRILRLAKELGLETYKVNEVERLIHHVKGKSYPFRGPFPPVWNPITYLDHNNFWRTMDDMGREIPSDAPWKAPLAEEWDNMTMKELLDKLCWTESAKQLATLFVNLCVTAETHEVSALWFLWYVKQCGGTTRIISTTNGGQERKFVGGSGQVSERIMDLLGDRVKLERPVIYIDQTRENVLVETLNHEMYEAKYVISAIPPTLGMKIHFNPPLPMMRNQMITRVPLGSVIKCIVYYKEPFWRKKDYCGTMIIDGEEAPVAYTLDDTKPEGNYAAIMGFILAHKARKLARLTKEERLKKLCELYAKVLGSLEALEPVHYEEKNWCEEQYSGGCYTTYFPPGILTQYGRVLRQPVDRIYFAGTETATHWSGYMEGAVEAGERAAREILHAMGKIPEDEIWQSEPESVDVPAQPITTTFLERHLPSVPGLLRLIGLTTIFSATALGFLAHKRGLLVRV
The experiment in a line: Inhibition of human recombinant MAO-B expressed in baculovirus infected insect cells using kynuramine as substrate after 20 mins by horseradish peroxidase-coupled assay.

Data set [2] concerns the target T2, Amine oxidase [flavin-containing] A (Homo sapiens, UniProt P21397).
T2 sequence (P21397 whole entry): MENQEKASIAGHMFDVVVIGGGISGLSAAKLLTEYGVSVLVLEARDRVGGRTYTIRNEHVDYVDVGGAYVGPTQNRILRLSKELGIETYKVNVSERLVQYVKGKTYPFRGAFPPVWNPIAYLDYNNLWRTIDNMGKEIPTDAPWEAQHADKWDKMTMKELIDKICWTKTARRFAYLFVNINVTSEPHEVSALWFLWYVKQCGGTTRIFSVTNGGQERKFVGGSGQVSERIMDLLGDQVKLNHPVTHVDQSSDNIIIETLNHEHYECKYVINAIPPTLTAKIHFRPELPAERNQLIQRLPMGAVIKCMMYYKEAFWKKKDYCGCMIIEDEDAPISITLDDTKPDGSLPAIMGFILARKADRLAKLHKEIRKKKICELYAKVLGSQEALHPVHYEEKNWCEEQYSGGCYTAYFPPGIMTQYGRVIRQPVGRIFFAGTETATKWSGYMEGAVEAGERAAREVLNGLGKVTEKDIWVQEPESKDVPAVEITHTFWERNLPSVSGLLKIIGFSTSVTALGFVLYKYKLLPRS
The experiment in a line: Inhibition of human recombinant MAO-A expressed in baculovirus infected insect cells using kynuramine as substrate after 20 mins by horseradish peroxidase-coupled assay.

The species named for data set [3] is Homo sapiens. The experiment in a line: Selectivity index, ratio of IC50 for human recombinant MAO-A to IC50 for human recombinant MAO-B.
Data set [4] concerns the target T2, Amine oxidase [flavin-containing] A. Description: Inhibition of human recombinant MAO-A expressed in baculovirus infected insect cells using kynuramine as substrate after 20 mins by fluorescence spectrophotometry.
Data set [5] deals with T1, Amine oxidase [flavin-containing] B. Description: Inhibition of human recombinant MAO-B expressed in baculovirus infected insect cells using kynuramine as substrate after 20 mins by fluorescence spectrophotometry.
Data set [6] concerns the target T2, Amine oxidase [flavin-containing] A. Description: Reversible inhibition of human recombinant MAO-A expressed in baculovirus infected insect cells using kynuramine as substrate at 9.7 uM incubated up to 60 mins prior to substrate addition measured after 15 mins by fluorescence spectrophotometry. Particulars: 0.25 h; call rule not given here.
The target in data set [7] is T1, Amine oxidase [flavin-containing] B. Description: Reversible inhibition of human recombinant MAO-B expressed in baculovirus infected insect cells using kynuramine as substrate at 9.7 uM incubated up to 60 mins prior to substrate addition measured after 15 mins by fluorescence spectrophotometry. Particulars: 0.25 h.
The target is the same in data set [8]. Description: Competitive inhibition of human recombinant MAO-B expressed in baculovirus infected insect cells using kynuramine as substrate by Lineweaver-Burk plot analysis.
For data set [9] the target is unchanged. Description: Reversible inhibition of human recombinant MAO-B expressed in baculovirus infected insect cells using kynuramine as substrate at 0.3 uM incubated up to 60 mins prior to substrate addition measured after 15 mins by fluorescence spectrophotometry. Particulars: 0.25 h.
For data set [10], the target named is T2, Amine oxidase [flavin-containing] A. Description: Reversible inhibition of human recombinant MAO-A expressed in baculovirus infected insect cells using kynuramine as substrate at 0.3 uM incubated up to 60 mins prior to substrate addition measured after 15 mins by fluorescence spectrophotometry. To be noted: 0.25 h.

24 molecules from ChEMBL document CHEMBL2086337, “Inhibition of monoamine oxidase by 8-phenoxymethylcaffeine derivatives” (Bioorg Med Chem, 2012) can be followed below.

In the case of `Cn1c(=O)c2c(nc(COc3cccc(F)c3)n2C)n(C)c1=O`, the figures for the IC50 in data set [1] and in data set [2] (read-out: IC50) were 1.61 µM and 13.2 µM, respectively. The Ratio IC50 in [3] came out at 8.

Regarding `COc1cccc(SCc2nc3c(c(=O)n(C)c(=O)n3C)n2C)c1`, the IC50 in data set [4] is 41.3 µM; in data set [5], 8.42 µM. The Ratio IC50 in [3] was found to be 5.

Take `Cc1cccc(OCc2nc3c(c(=O)n(C)c(=O)n3C)n2C)c1`: the concentration for half-maximal inhibition (IC50) in data set [1] worked out at 1.23 µM; in data set [2] (read-out: IC50), 18.8 µM. Moreover, the Ratio IC50 in [3] is 15.

Consider `Cn1c(=O)c2c(nc(COc3cccc(C(F)(F)F)c3)n2C)n(C)c1=O`, for which the concentration for half-maximal inhibition (IC50) in data set [1] amounted to 0.641 µM; in [2] (read-out: IC50) it was 4.59 µM. Moreover, the Ratio IC50 in [3] was 7. Moreover, the “inhibition (INH)” value in data set [6] and in data set [7] was “Active” throughout.

For `Cn1c(=O)c2c(nc(CCSc3ccc(Cl)cc3)n2C)n(C)c1=O`, the half-maximal inhibitory concentration (IC50) was determined as 7.79 µM in [1] and 142 µM in [2] (read-out: IC50). Also, the Ratio IC50 in [3] stood at 18.

As for `Cn1c(=O)c2c(nc(CSc3cccc(F)c3)n2C)n(C)c1=O`, the IC50 was 50.1 µM in [4] and 22.3 µM in data set [5]. Moreover, the Ratio IC50 in data set [3] came to 2.

With `Cn1c(=O)c2c(nc(COc3ccc(Br)cc3)n2C)n(C)c1=O`, the concentration for half-maximal inhibition (IC50) in data set [1] was found to be 0.189 µM; in data set [2] (read-out: IC50), 10.7 µM. Moreover, the Ratio IC50 in data set [3] is 57.

As to `Cn1c(=O)c2c(nc(COc3ccc(Cl)cc3)n2C)n(C)c1=O`, the half-maximal inhibitory concentration (IC50) worked out at 0.25 µM in data set [1] and 20.4 µM in data set [2] (read-out: IC50). Moreover, the Ratio IC50 in [3] was found to be 82.

Turning to `Cn1c(=O)c2c(nc(CCSc3ccc(Br)cc3)n2C)n(C)c1=O`, the values for the 50% inhibitory concentration (IC50) in data set [1] and in data set [2] (read-out: IC50) were 124 µM and 117 µM, respectively. Further, in [3], the Ratio IC50 came out at 0.9.

Take `COc1cccc(OCc2nc3c(c(=O)n(C)c(=O)n3C)n2C)c1`: the figures for the 50% inhibitory concentration (IC50) in [1] and in [2] were 1.96 µM and “Not Active”, respectively.

Turning to `Cn1c(=O)c2c(nc(CSc3ccc(Cl)cc3)n2C)n(C)c1=O`, the half-maximal inhibitory concentration (IC50) in [4] came out at 31.6 µM; in [5], 6.91 µM. For the same molecule, in data set [3], the Ratio IC50 was determined as 5.

With `Cn1c(=O)c2c(nc(CCSc3cccc(Br)c3)n2C)n(C)c1=O`, the half-inhibitory concentration (IC50) in [1] is 64.1 µM; in data set [2] (read-out: IC50), 372 µM. Moreover, the Ratio IC50 in data set [3] amounted to 6.

As for `CCOc1cccc(SCc2nc3c(c(=O)n(C)c(=O)n3C)n2C)c1`, the half-maximal inhibitory concentration (IC50) was 44.7 µM in data set [4] and 18.4 µM in data set [5]. The Ratio IC50 in data set [3] turned out to be 2.

`Cn1c(=O)c2c(nc(COc3cccc(Cl)c3)n2C)n(C)c1=O`: the half-maximal inhibitory concentration (IC50) in data set [1] is 0.334 µM; in [2], “Not Active”.

Turning to `Cn1c(=O)c2c(nc(CCSc3cccc(Cl)c3)n2C)n(C)c1=O`, the IC50 in data set [1] is 5.67 µM; in data set [2] it was “Not Active”.

On to `Cn1c(=O)c2c(nc(COc3ccccc3)n2C)n(C)c1=O`, for which the IC50 amounted to 5.78 µM in data set [1] and 21.1 µM in [2] (read-out: IC50). In addition, the Ratio IC50 in [3] stood at 4.

Turning to `Cn1c(=O)c2c(nc(COc3ccc(F)cc3)n2C)n(C)c1=O`, the 50% inhibitory concentration (IC50) in data set [1] was 0.825 µM; in data set [2] (read-out: IC50) it was 8.22 µM. The Ratio IC50 in data set [3] came out at 10.

For `Cn1c(=O)c2c(nc(CCSc3ccccc3)n2C)n(C)c1=O`, the figures for the IC50 in data set [1] and in data set [2] (read-out: IC50) were 108 µM and 139 µM, respectively. Further, in data set [3], the Ratio IC50 came out at 1.3.

With `Cn1c(=O)c2c(nc(CSc3cccc(Br)c3)n2C)n(C)c1=O`, the figures for the 50% inhibitory concentration (IC50) in [4] and in data set [5] were 23.8 µM and 4.9 µM, respectively. Besides, the Ratio IC50 in [3] stood at 5.

For `Cn1c(=O)c2c(nc(CSc3ccc(Br)cc3)n2C)n(C)c1=O`, the half-maximal inhibitory concentration (IC50) in data set [4] amounted to 20.8 µM; in [5], 4.05 µM. For the same molecule, the Ratio IC50 in [3] is 5.

As for `Cn1c(=O)c2c(nc(COc3cccc(Br)c3)n2C)n(C)c1=O`, the “inhibition (INH)” value in [8], in data set [9] and in [10] was “Active” throughout. In addition, the half-maximal inhibitory concentration (IC50) is 0.148 µM in [1] and 34 µM in [2] (read-out: IC50). Besides, in data set [3], the Ratio IC50 turned out to be 230.

For `Cn1c(=O)c2c(nc(CSc3cccc(Cl)c3)n2C)n(C)c1=O`, the IC50 was found to be 19.4 µM in [4] and 6.12 µM in data set [5]. Besides, the Ratio IC50 in data set [3] was 3.

Consider `Cn1c(=O)c2c(nc(CSc3ccccc3)n2C)n(C)c1=O`, for which the concentration for half-maximal inhibition (IC50) in data set [4] was determined as 66.2 µM; in data set [5] it was 23.4 µM. The Ratio IC50 in data set [3] was 3.

On to `Cc1cccc(SCc2nc3c(c(=O)n(C)c(=O)n3C)n2C)c1`, for which the concentration for half-maximal inhibition (IC50) in data set [4] was determined as 51.8 µM; in data set [5] it was 17.9 µM. In addition, in data set [3], the Ratio IC50 turned out to be 3.
